Assay results: publication PMC12169614, “Exploring Long Arm Amide-Linked Side Chains in the Design of Antifungal Azole Inhibitors of Sterol 14α-Demethylase (CYP51)” (Journal of Medicinal Chemistry, 2025)

What was measured:
Type in all cases: cell-based, S. cerevisiae
Settings in all cases: 10 nmol/disk, 30 °C, 48 h
[1] = system: Y2301 ScCYP51 Y140F mutant; assay: Agarose (disk) diffusion assay, strain Y2301
Text: (§1) Final compounds were screened as racemic mixtures using agarose diffusion assays to visualize their inhibitory activity against a panel of recombinant S. cerevisiae strains i.e., S. cerevisiae strains expressing control levels of wild-type CYP51 (ScCYP51), overexpressed wild-type ScCYP51, overexpressed azole-resistant ScCYP51 Y140F/H mutations and overexpressed C. albicans efflux pumps MDR1a or CDR1B (Figure and Table S1).
(§2) The susceptibilities of S. cerevisiae and Candida species strains to azole compounds were observed as zones of growth inhibition in agarose diffusion assays. The disk diffusion assays were carried out as described by Keniya et al. Complete supplement mixture (CSM) agarose (0.6% agarose [wt/vol]; 20 mL of synthetic defined medium (SD); pH 6.8–7) was solidified in a rectangular Petri dish which was overlaid with CSM agarose (0.6% [wt/vol]; 5 mL; pH 6.8–7) seeded with yeast cells at an optical density (OD600) of 0.008 (118,000 cells per 1 mL of overlay). Azole compounds (10 nmol/disk) were applied to sterile BBL paper disks (Becton Dickinson Co., Sparks, MD) and placed on solidified overlays. Cell growth was assessed after incubation at 30 °C for 48 h.

[2] = system: Y2513 ScCYP51 Y140H mutant; assay: Agarose (disk) diffusion assay, strain Y2513
Text: as §1, §2

[3] = system: Y525 MFS efflux pump CaMDR1a overexpressed; assay: Agarose (disk) diffusion assay, strain Y525
Text: as §1, §2

For `O=C(NCC(O)(Cn1cncn1)c1ccc(F)cc1F)c1cnc2ccccc2c1` (centres unmarked) [Compound 15, N-(2-(2,4-Difluorophenyl)-2-hydroxy-3-(1H-1,2,4-triazol-1-yl)propyl)quinoline-3-carboxamide], the “zone of growth inhibition (inhibitory activity in words)” value (“zone of growth inhibition” for short) [1] was “showed activity” and the “zone of growth inhibition” value [2] was “showed activity”.

In the case of `O=C(NCc1ccc(-c2ccccc2)cc1)C(Cn1cncn1)c1ccc(F)cc1F` (centres unmarked) [Compound 37], the “zone of growth inhibition” value [1] was “low inhibitory activity”, the “zone of growth inhibition” value [2] was “low inhibitory activity” and the “zone of growth inhibition” value [3] was “low inhibitory activity”.

In the case of `O=C(NCc1ccc(-c2ccc(Cl)cc2)cc1)C(Cn1cncn1)c1ccc(F)cc1F` (centres unmarked) [Compound 38], the “zone of growth inhibition” value [1] was “low inhibitory activity”, the “zone of growth inhibition” value [2] was “low inhibitory activity” and the “zone of growth inhibition” value [3] was “low inhibitory activity”.

`O=C(NCc1ccc(-c2ccc(C(F)(F)F)cc2)cc1)C(Cn1cncn1)c1ccc(F)cc1F` (centres unmarked) [Compound 39] was tested, and the “zone of growth inhibition” value [1] was “lacked inhibitory activity”, the “zone of growth inhibition” value [2] was “lacked inhibitory activity” and the “zone of growth inhibition” value [3] was “lacked inhibitory activity”.

`O=C(NCc1ccc(-c2ccc(OC(F)(F)F)cc2)cc1)C(Cn1cncn1)c1ccc(F)cc1F` (centres unmarked) [Compound 40] was tested, and the “zone of growth inhibition” value [1] was “low inhibitory activity”, the “zone of growth inhibition” value [2] was “low inhibitory activity” and the “zone of growth inhibition” value [3] was “low inhibitory activity”.
